Source: US7365042B2, “Pyridine-3-sulfonyl compounds as pesticidal agents” (BASF Aktiengesellschaft, priority 2002, dated 2008)
Values joined by “and” are separate entries in the source; they are usually repeats but may differ in a detail not shown here. Equal entries are not always repeated.

Experiments:
Format in all cases: in vivo
[1] = tested on: Cotton aphid (Aphis gossypii); assay: Cotton aphid leaf dip test (CA H43); settings: mixed life stages
Method: (§1) Test compounds were prepared and formulated into aqueous formulations using acetone. The formulations were tested using the following target species: • SAW-L52-PRODER (southern armyworm), 2ND-3RD Instar Larvae, Leaf Dip, 4 days • CA-H43-APHIGO (cotton aphid), Mixed Life Stages, Leaf Dip • BA-H40-APHIFA (black bean aphid), Mixed Life Stages, Plant Drench • GPA-H52-MYZUPE (green peach aphid), Mixed Life Stages, Leaf Dip • SLWF-H45-BEMIAR (silver leaf whitefly), Adult, Leaf Dip • TSMR-A42-TETRUR (two-spotted spider mite, P-resistant origin), Mixed Life Soges, Leaf Dip
Test Procedures for Cotton aphid (Aphis gossypii) (CA—leaf dip):
Selected cotton plants to the cotyledon stage (one plant per pot). Placed one heavily infested cotyledon pair, hosting approximately 100 laboratory-reared aphids, an top of each test plant. Allowed the aphids to transfer to the test plants (overnight). Removed the drying cotyledons from the test plants prior to dipping.
Prepared test solutions as needed in 50:50 acetone: water and 100 ppm Kinetic® surfactant. Dipped the infested leaves of the intact plant into the test solution to provide complete coverage of the leaf surfaces. Placed in a well-vented area to dry.

[2] = tested on: Green peach aphid (Myzus persicae); assay: Green peach aphid leaf dip test (GPA H52); settings: pepper, mixed life stages, five days
Method: as §1
Test Procedures for GPA—Green peach aphid (Myzus persicae)—Leaf Dip:
Selected pepper plants (one plant per pot) in the second leaf-pair stage, with the 1st leaf-pair measuring 6-10 cm from tip to tip. Removed the cotyledons. Placed infested pepper leaves or leaf sections on top of the test plants, allowing for approximately 60 laboratory-reared aphids per plant. Allowed the aphids to transfer from the leaf sections to the test plants (overnight) to reach a density of at least 40 aphids per plant, then removed the leaf sections.
Prepared test solutions as needed in 50:50 acetone:water and 100 ppm Kinetic® surfactant (STP#1A). Dipped the leaves of the infested plant into the test solution to provide complete coverage of the leaf surfaces. Placed in a well-vented area to dry. Test plants were maintained under fluorescent light (24 hour photoperiod) at 25±2° C. and 20-40% relative humidity for five days, at which time aphid survival was determined (see Table 1a).

[3] = tested on: Two-spotted spider mite (Tetranychus uriticae), P-resistant origin; assay: Two-spotted spider mite leaf dip test (TSMR A42); settings: 300 ppm, lima bean, mixed life stages, five days
Method: as §1
Test Procedures for Two-spotted spider mite (Tetranychus uriticae) TSM—leaf-dip:
Selected lima bean plants (one plant per pot), grown to the first leaf pair with a span of 7-12 cm. Placed sections of a heavily infested leaf (laboratory reared mites) an the test plants. Allowed the mites to transfer from the leaf sections to the test plants (at least two houss) to provide at least 100 mites per leaf. Removed the leaf sections from the test plants prior to dipping.
Prepared test solutions as needed in 50:50 acetone:water and 100 ppm Kinetic® surfactant. Dipped the infested leaves of the intact plant into the test solution to provide complete coverage of the leaf surfaces. Placed in a well-vented area to dry. […]

Bean aphid (Aphis fabae) = assay: Bean aphid test on nasturtium seedlings (BA H40); parameters: key to BA H40 observation (feeding): R = Reduced feeding, regardless of cause (e.g., repellent effects); settings: 3 days; for BA H40 activity rating: mixed life stages
Method: as §1
Test Procedures for Bean aphid (Aphis fabae) (BA—Foliar):
Transferred approximately 5-day-old nasturtium seedlings (at the state of unfolded cotyledons), grown in Metro mix in propagation trays in the greenhouse, to Rootcubes, which were held in propagation trays Pressed the seed (still attached to the seedling) in the central depression of each cube. Held transferred seedlings for approximately 3 days in the greenhouse for expansion of the cotyledons.
In the insecticide screening laboratory, infested the seedlings. Positioned a paint roller screen above the 72 plants in each tray so that the screen was in contact with the foliage of the test plants. Spread approximately 50 infested nasturtium stems and leaves (from approximately 2-3 peat pots of insectary-reared aphids) an each screen. Kept the trag with the seedlings sitting in about ½ in. water overnight in the laboratory (leaving lights in lab on). Migration of aphids to the test plants occurred by morning. Removed the screen with drying leaves from the trays of test plants and discarded the leaves.
Prepared test solutions as needed in 50:50 acetone:water and 100 ppm Kinetic® surfactant. Selected plants to dip that had approximately 2-30 aphids per plant. Dipped each plant into the test solution to provide complete coverage of the foliage, stem, protruding seed surface and surrounding cube surface. Kept treated plants in the fume hood to dry. For routine screening, used one plant/treatment.
Placed treated plants in bioassay trays, 1 plant/well. Added water to fill each well. This allowed the plants to be watered from the roots, not interfering with the foliar treatment, and reduced potential migration of aphids between treatments. Kept treated plants at room temperature an the insecticide screening lab bench with continuous fluorescent light for 3 days.

SMILES	CA H43 activity rating ([1]; 10 ppm)	CA H43 activity rating ([1]; 100 ppm)	CA H43 activity rating ([1]; 300 ppm)	GPA H52 activity rating ([2]; 10 ppm)	GPA H52 activity rating ([2]; 100 ppm)	GPA H52 activity rating ([2]; 300 ppm)	TSMR A42 activity rating [3]	BA H40 activity rating (Bean aphid (Aphis fabae); 10 ppm)	BA H40 observation (feeding) (Bean aphid (Aphis fabae); 100 ppm)	BA H40 activity rating (Bean aphid (Aphis fabae); 100 ppm)	BA H40 observation (feeding) (Bean aphid (Aphis fabae); 300 ppm)	BA H40 activity rating (Bean aphid (Aphis fabae); 300 ppm)
C#CCNS(=O)(=O)c1cnccc1C(F)(F)F [Compound 1, 4-Trifluoromethyl-pyridine-3-sulfonic acid prop-2-ynylamide]	0 (0 = 0-25% reduction of live population vs. check)	8 (8 = 86-99% reduction of live population vs. check)	8 (8 = 86-99% reduction of live population vs. check)	0 (0 = 0-25% reduction of live population vs. check)	7 (7 = 75-85% reduction of live population vs. check)	8 (8 = 86-99% reduction of live population vs. check)	0 (0 = 0-25% reduction of live population vs. check)	0^ (0 = 0-25% reduction of live population vs. check)	R	5 (5 = 50-74% reduction of live population vs. check)	R	8 (8 = 86-99% reduction of live population vs. check)
N#CCNS(=O)(=O)c1cnccc1C(F)(F)F [Compound 2, 4-Trifluoromethyl-pyridine-3-sulfonic acid cyanomethyl-amide]	0 (0 = 0-25% reduction of live population vs. check)	8 (8 = 86-99% reduction of live population vs. check)	9 (9 = 100% reduction of live population vs. check)	0 (0 = 0-25% reduction of live population vs. check)	3 (3 = 25-49% reduction of live population vs. check)	8 (8 = 86-99% reduction of live population vs. check) and 5 (5 = 50-74% reduction of live population vs. check)	0 (0 = 0-25% reduction of live population vs. check)	0^ (0 = 0-25% reduction of live population vs. check)	R	0 (0 = 0-25% reduction of live population vs. check)	R	7 (7 = 75-85% reduction of live population vs. check)
